Test results from US12338256B2, “Aza-tetracyclic oxazepine compounds and uses thereof” (Genentech, Inc., priority 2022, dated 2025).

What was measured:
Assay type in all cases: cell-based
[1] = tested on: AsPC-1 (homozygous mutant KRAS G12D human pancreatic cell line); test: KRAS 3D-Cell Proliferation Assay, AsPC-1 (Example 503); settings: Homo sapiens, ASPC1, 168 h, AsPC-1 3D culture, 7 days, CellTiter-Glo 3D; read-out: Prolif AsPC-1 3D ATP IC50
Summary of the method: (§1)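 KRAS G12D homozygous pancreatic lines and KRAS wild-type lung lines grown as 3D cultures in ultra-low-attachment wells in RPMI-1640/10% FBS, dosed after overnight with compound dilution series (0.3% DMSO final) for 7 days at 37 °C. ATP read by CellTiter-Glo 3D luminescence; IC50 from 4-parameter Hill fit, normalized to DMSO and 1 μM staurosporine.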

[2] = tested on: HPAC (homozygous mutant KRAS G12D human pancreatic cell line); test: KRAS 3D-Cell Proliferation Assay, HPAC (Example 503); settings: Homo sapiens, HPAC, 168 h, HPAC 3D culture, 7 days, CellTiter-Glo 3D; read-out: Prolif HPAC 3D ATP IC50
Summary of the method: as §1

[3] = tested on: PC-9 (KRAS wild type human lung adenocarcinoma cell line); test: KRAS 3D-Cell Proliferation Assay, PC-9 (Example 503); settings: 168 h, PC-9 3D culture, 7 days, CellTiter-Glo 3D, read-out: Prolif PC9 3D ATP IC50
Description: Example 503: KRAS 3D-Cell Proliferation Assays. Cellular potencies of compounds are assessed by evaluating inhibition of proliferation in 3D cultures of homozygous mutant KRAS G12D human pancreatic cell lines (AsPC-1 and HPAC) as compared to a KRAS wild type human lung adenocarcinoma cell line (PC-9 and/or H1975). Cells are seeded into 384-well black round-bottom, ultra-low attachment assay plates in 50 uL cell growth medium (RPMI-1640 with 10% fetal bovine serum and 2 mM L-glutamine). After overnight incubation at 37° C. and 5% CO2, compounds solubilized in DMSO are added as dilution series to the wells in a total volume of 150 nL (0.3% DMSO final). The cells are incubated for 7 days at 37° C. and 5% CO2. Cell proliferation is quantitated by addition of 40 uL/well of CellTiter-GloÒ 3D (Promega), and the well contents are mixed 20× at high speed using liquid handling automation workstation (Bravo with 384-well head) and centrifuged at 1500 rpm for 2 minutes to eliminate bubbles. This reagent in combination with mechanical disruption releases the cellular ATP to promote activity in a luciferase-based enzyme/substrate chemiluminescent detection system. After a 30-minute incubation under ambient conditions with shaking and an additional 10 minutes without shaking, the luminescence is read on a plate reader (e.g., EnVision [PerkinElmer]). The results are normalized to percent inhibition based on the following control samples: DMSO (0% inhibition) and 1 μM staurosporine (100% inhibition). The normalized luminescence results are plotted against compound concentration, and the data are fit to a 4-parameter Hill equation to determine the IC50 values.

[4] = tested on: H1975 (KRAS wild type human lung adenocarcinoma cell line); test: KRAS 3D-Cell Proliferation Assay, H1975 (Example 503); settings: Homo sapiens, NCI-H1975, 168 h, H1975 3D culture, 7 days, CellTiter-Glo 3D; read-out: Prolif H1975 3D ATP IC50
Summary of the method: as §1

SMILES	IC50 [1]	IC50 [2]	IC50 [3]	IC50 [4]
C#Cc1cccc2cc(O)cc(-c3nc4c5c(nc(OC[C@@]67CCCN6C[C@H](F)C7)nc5c3F)N3C[C@H]5CC[C@H](CN5CCCF)[C@H]3CO4)c12 [Compound 50, 5-Ethynyl-4-((5aS,6R,9R)-1-fluoro-14-(3-fluoropropyl)-12-(((2R,7aS)-2-fluorotetrahydro-1H-pyrrolizin-7a(5H)-yl)methoxy)-5a,6,7,8,9,10-hexahydro-5H-4-oxa-3,10a,11,13,14-pentaaza-6,9-ethanonaphtho[1,8-ab]heptalen-2-yl)naphthalen-2-ol]	13 nM	25.8 nM	4910 nM	455 nM
C#Cc1cccc2cc(O)cc(-c3nc4c5c(ncnc5c3F)N3C[C@H]5CC[C@H](N5)[C@H]3[C@H](C)O4)c12 [Compound 54, 5-ethynyl-4-((5S,5aS,6S,9R)-1-fluoro-5-methyl-5a,6,7,8,9,10-hexahydro-5H-4-oxa-3,10a,11,13,14-pentaaza-6,9-methanonaphtho[1,8-ab]heptalen-2-yl)naphthalen-2-ol]	2090 nM	3420 nM	≥ 20000 nM	20000 nM
C#Cc1cccc2cc(O)cc(-c3nc4c5c(nc(OC[C@@]67CCCN6C[C@H](F)C7)nc5c3F)N3C[C@H]5CC[C@H](CN5CC5COC5)[C@H]3CO4)c12 [Compound 51, 5-ethynyl-4-((5aS,6R,9R)-1-fluoro-12-(((2R,7aS)-2-fluorotetrahydro-1H-pyrrolizin-7a(5H)-yl)methoxy)-14-(oxetan-3-ylmethyl)-5a,6,7,8,9,10-hexahydro-5H-4-oxa-3,10a,11,13,14-pentaaza-6,9-ethanonaphtho[1,8-ab]heptalen-2-yl)naphthalen-2-ol]	51.2 nM	73 nM	19500 nM	1820 nM
C[C@@H]1Oc2nc(-c3c(C(F)(F)F)ccc(N)c3F)c(F)c3nc(OC[C@@]45CCCN4C[C@H](F)C5)nc(c23)N2C[C@H]3CC[C@H](N3)[C@@H]12 [Compound 35, 2-fluoro-3-((5S,5aS,6S,9R)-1-fluoro-12-(((2R,7aS)-2-fluorotetrahydro-1H-pyrrolizin-7a(5H)-yl)methoxy)-5-methyl-5a,6,7,8,9,10-hexahydro-5H-4-oxa-3,10a,11,13,14-pentaaza-6,9-methanonaphtho[1,8-ab]heptalen-2-yl)-4-(trifluoromethyl)aniline]	10.6 nM	7.4 nM	9170 nM	5870 nM
CCc1cccc2cc(O)cc(-c3nc4c5c(nc(OC[C@@]67CCCN6C[C@H](F)C7)nc5c3F)N3C[C@H]5CC[C@H](N5)[C@H]3CO4)c12 [Compound 5, 5-ethyl-4-((5aS,6S,9R)-1-fluoro-12-(((2R,7aS)-2-fluorotetrahydro-1H-pyrrolizin-7a(5H)-yl)methoxy)-5a,6,7,8,9,10-hexahydro-5H-4-oxa-3,10a,11,13,14-pentaaza-6,9-methanonaphtho[1,8-ab]heptalen-2-yl)naphthalen-2-ol]	6.28 nM	7.06 nM	9050 nM	1400 nM
C#Cc1cccc2cncc(-c3nc4c5c(nc(OC[C@@]67CCCN6CC6(CC6(F)F)C7)nc5c3F)N3C[C@H]5CC[C@H](N5)[C@H]3[C@H](C)O4)c12 (stereo partly drawn) [Compound 40, (5S,5aS,6S,9R)-12-(((7a′S)-2,2-difluorodihydro-1′H,3′H-spiro[cyclopropane-1,2′-pyrrolizin]-7a′(5′H)-yl)methoxy)-2-(5-ethynylisoquinolin-4-yl)-1-fluoro-5-methyl-5a,6,7,8,9,10-hexahydro-5H-4-oxa-3,10a,11,13,14-pentaaza-6,9-methanonaphtho[1,8-ab]heptalene]	27.7 nM	36 nM	15700 nM	20000 nM
C[C@@H]1Oc2nc(-c3cncc4ccccc34)c(F)c3nc(OC[C@@]45CCCN4CC4(CC4(F)F)C5)nc(c23)N2C[C@H]3CC[C@H](N3)[C@@H]12 (stereo partly drawn) [Compound 30, (5S,5aS,6S,9R)-12-(((7a′S)-2,2-difluorodihydro-1′H,3′H-spiro[cyclopropane-1,2′-pyrrolizin]-7a′(5′H)-yl)methoxy)-1-fluoro-2-(isoquinolin-4-yl)-5-methyl-5a,6,7,8,9,10-hexahydro-5H-4-oxa-3,10a,11,13,14-pentaaza-6,9-methanonaphtho[1,8-ab]heptalene]	166 nM	154 nM	3810 nM	2890 nM
Cc1cc(N)cc(-c2nc3c4c(nc(OC[C@]56CCN5CC(F)(F)C6)nc4c2F)N2C[C@H]4CC[C@H](N4)[C@H]2[C@H](C)O3)c1C(F)(F)F [Compound 60, 3-((5S,5aS,6S,9R)-12-(((R)-3,3-Difluoro-1-azabicyclo[3.2.0]heptan-5-yl)methoxy)-1-fluoro-5-methyl-5a,6,7,8,9,10-hexahydro-5H-4-oxa-3,10a,11,13,14-pentaaza-6,9-methanonaphtho[1,8-ab]heptalen-2-yl)-5-methyl-4-(trifluoromethyl)aniline]	3.48 nM	2.59 nM	16500 nM	720 nM
C[C@@H]1Oc2nc(-c3cc(N)cc(F)c3C(F)(F)F)c(F)c3nc(OC[C@@]45CCCN4C[C@H](F)C5)nc(c23)N2C[C@H]3CC[C@H](N3)[C@@H]12 [Compound 17, 3-fluoro-5-((5S,5aS,6S,9R)-1-fluoro-12-(((2R,7aS)-2-fluorotetrahydro-1H-pyrrolizin-7a(5H)-yl)methoxy)-5-methyl-5a,6,7,8,9,10-hexahydro-5H-4-oxa-3,10a,11,13,14-pentaaza-6,9-methanonaphtho[1,8-ab]heptalen-2-yl)-4-(trifluoromethyl)aniline]	1.71 nM	0.62 nM	7910 nM	1340 nM
Cc1cc(-c2nc3c4c(nc(OC[C@@]56CCCN5C[C@H](F)C6)nc4c2F)N2C[C@H]4CC[C@H](N4)[C@H]2[C@H](C)O3)cc(N)c1F [Compound 13, 2-fluoro-5-((5S,5aS,6S,9R)-1-fluoro-12-(((2R,7aS)-2-fluorotetrahydro-1H-pyrrolizin-7a(5H)-yl)methoxy)-5-methyl-5a,6,7,8,9,10-hexahydro-5H-4-oxa-3,10a,11,13,14-pentaaza-6,9-methanonaphtho[1,8-ab]heptalen-2-yl)-3-methylaniline]	1870 nM	–	3530 nM	–
C[C@@H]1Oc2nc(-c3nc(N)ccc3C(F)(F)F)c(F)c3nc(OC[C@@]45CCCN4C[C@H](F)C5)nc(c23)N2C[C@H]3CC[C@H](N3)[C@@H]12 [Compound 85, 6-((5S,5aS,6S,9R)-1-fluoro-12-(((2R,7aS)-2-fluorotetrahydro-1H-pyrrolizin-7a(5H)-yl)methoxy)-5-methyl-5a,6,7,8,9,10-hexahydro-5H-4-oxa-3,10a,11,13,14-pentaaza-6,9-methanonaphtho[1,8-ab]heptalen-2-yl)-5-(trifluoromethyl)pyridin-2-amine]	975 nM	–	≥ 20000 nM	–
Cc1cc(N)nc(-c2nc3c4c(nc(OC[C@@]56CCCN5C[C@H](F)C6)nc4c2F)N2C[C@H]4CC[C@H](N4)[C@H]2CO3)c1C(F)(F)F [Compound 44, 6-((5aS,6S,9R)-1-fluoro-12-(((2R,7aS)-2-fluorotetrahydro-1H-pyrrolizin-7a(5H)-yl)methoxy)-5a,6,7,8,9,10-hexahydro-5H-4-oxa-3,10a,11,13,14-pentaaza-6,9-methanonaphtho[1,8-ab]heptalen-2-yl)-4-methyl-5-(trifluoromethyl)pyridin-2-amine]	337 nM	–	≥ 20000 nM	–
Fc1c(-c2cccc3cccc(Cl)c23)nc2c3c(nc(OC[C@@]45CCCN4C[C@H](F)C5)nc13)N1C[C@H]3CC[C@H](N3)[C@H]1CO2 [Compound 2, (5aS,6S,9R)-2-(8-chloronaphthalen-1-yl)-1-fluoro-12-(((2R,7aS)-2-fluorotetrahydro-1H-pyrrolizin-7a(5H)-yl)methoxy)-5a,6,7,9,10-hexahydro-5H-4-oxa-3,10a,11,13,14-pentaaza-6,9-methanonaphtho[1,8-ab]heptalene]	565 nM	–	4680 nM	–
